From patent US20220315598A1, “Oxygen-containing Heterocyclic Compound, Preparation Method Therefor and Use Thereof” (SHANGHAI YINGLI PHARMACEUTICAL CO., LTD, priority 2019, published 2022)
Read-outs that look alike come from different tables or passages of the source.

Key:
[1] = system: NCI-H358 cells; experiment: Proliferation inhibition on NCI-H358 cell line by CTG method; type: cell-based, human; conditions: for IC50: CellTiter Glo, 120 hours
Description: (§1) NCI-H358 was a human non-small cell lung cancer cell with KRAS G12C mutation; A549 was a human non-small cell lung cancer cell with KRAS G12V mutation: and A375 was a wild-type malignant melanoma cell. The inhibitory effects of compounds on different mutations were evaluated by testing the proliferation inhibitory activity of these compounds on the three cell lines.
(§2) 40 μL of cell suspension to be tested was added to each well (except for peripheral wells) of three 384-well plates (plate 1: NCI-H358 cell suspension: plate 2: A549 cell suspension: plate 3: A375 cell suspension). The plates were placed in a carbon dioxide incubator overnight. […] The plates were incubated in a carbon dioxide incubator for 120 hours. To the 384-well plates were added 25 μL of CellTiter Glo reagents, and the mixture was shaken in the dark for 10 minutes and incubated for 10 minutes. The plates were read on the EnVision plate reader. XLFit was used to draw inhibition rate curves of efficacy and IC50 values were calculated. […] “---” represents not determined.
Experiments for Testing Proliferation Inhibition of Compounds on NCI-H358 Cell Lines by CTG Method

[2] = system: MIA PaCa-2 cells; experiment: Proliferation inhibition on MIA PaCa-2 cell line by CTG method; type: cell-based, human; conditions: for IC50: Homo sapiens, MIA PaCa-2, Table 2, CellTiter Glo, 120 hours
Description: Experiments for Testing Proliferation Inhibition of Compounds on MIA PaCa-2 Cell Lines by CTG Method
40 μL of MIA PaCa-2 cell suspension was added to each well (except for peripheral wells) of 384-well plates. The plates were placed in a carbon dioxide incubator overnight. […] The plates were incubated in a carbon dioxide incubator for 120 hours. To the 384-well plates were added 25 μL of CellTiter Glo reagents, and the mixture was shaken in the dark for 10 minutes and incubated for 10 minutes. The plates were read on the EnVision plate reader. XLFit was used to draw inhibition rate curves of efficacy and IC50 values were calculated. […] “---” represents not determined.
MIA PaCa-2 was a human pancreatic cancer cell with KRAS G12C mutation. The activity of compounds can be evaluated by detecting the proliferation inhibitory activity of these compounds on such cell line.

[3] = system: A549 cells; experiment: Proliferation inhibition on A549 cell line by CTG method; type: cell-based, human
Description: as §1, §2

[4] = system: A375 cells; experiment: Proliferation inhibition on A375 cell line by CTG method; type: cell-based; conditions: Table 1, CellTiter Glo, 120 hours, class symbol
Description: as §1, §2

[5] = Homo sapiens, NCI-H358, 120 h, Table 1, number, read-out: IC50 (μM): (H358)
[6] = Homo sapiens, NCI-H358, 120 h, Table 2, number, read-out: IC50 (nM) H358
[7] = Homo sapiens, NCI-H358, 120 h, Table 1, class symbol, read-out: IC50 (μM): (H358)
[8] = Homo sapiens, A549, 120 h, Table 1, CellTiter Glo, class symbol
[9] = Table 1, class symbol, read-out: IC50 (μM): (H358)
[10] = Table 1, CellTiter Glo, 120 hours, class symbol
[11] = Homo sapiens, NCI-H358, 120 h, Table 2, class symbol, read-out: IC50 (nM) H358

Structure (SMILES)	IC50 [1, 7] [µM]	IC50 [3, 8] [µM]	IC50 ([4]; Homo sapiens, A-375) [µM]	other results
C=CC(=O)N1CCN(c2nc(OC[C@@H]3CCCN3C)nc3c2CCN(c2ccccc2C(F)(F)F)C3)C[C@@H]1CC#N [Comparative compound 1′, reference compound]	–	–	–	IC50 [1, 5]: 0.0073 µM; IC50 [1, 6]: 0.0073 µM; IC50 ([2]; number): 3.9 nM
C=CC(=O)N1CCN(c2nc(OC[C@@H]3CCCN3C)nc3c2CC[C@H](c2ccccc2C(F)(F)F)C3)C[C@@H]1CC#N [Comparative compound 3′, reference compound]	–	–	–	IC50 ([2]; number): 8.3 nM
C=CC(=O)N1CCN(c2nc(OC[C@@H]3CCCN3C)nc3c2COCC3)C[C@@H]1CC#N [Compound 1]	> 1	> 1	–	IC50 [1, 5]: > 10 µM; IC50 ([3]; Homo sapiens, A549, 120 h, Table 1, CellTiter Glo, number): > 10 µM
C=CC(=O)N1CCN(c2nc(OC[C@@H]3CCCN3C)nc3c2COC(c2ccccc2C(F)(F)F)C3)C[C@@H]1CC#N (stereo partly shown) [Compound 2-1]	–	–	–	IC50 [1, 9]: < 1 µM; IC50 [3, 10]: > 1 µM; IC50 [4]: > 1 µM
C=CC(=O)N1CCN(c2nc(OC[C@@H]3CCCN3C)nc3c2COC(c2ccccc2C(F)(F)F)C3)C[C@@H]1CC#N (stereo partly shown) [Compound 2-2]	< 1	> 1	> 1	IC50 [1, 5]: 0.0025 µM; IC50 [1, 6]: 0.0025 µM; proliferation inhibitory activity on NCI-H358 cells, in words ([1]; Table 1): significantly better than that of the corresponding comparative compound 1′; IC50 ([2]; number): 1.9 nM; proliferation inhibitory activity, comparison in words ([2]; text on Table 2 (H358 and MIA PaCa-2 cells)): significantly better than that of the corresponding comparative compounds 1′ and 3′
C=CC(=O)N1CCN(c2nc(OC[C@@H]3CCCN3C)nc3c2COC(c2cccc4ccccc24)C3)C[C@@H]1CC#N (stereo partly shown) [Compound 3-1]	–	–	> 1	–
C=CC(=O)N1CCN(c2nc(OC[C@@H]3CCCN3C)nc3c2COC(c2cccc4ccccc24)C3)C[C@@H]1CC#N (stereo partly shown) [Compound 3-2]	–	–	–	IC50 [4]: > 1 µM
C=CC(=O)N1CCN(c2nc(OC[C@@H]3CCCN3C)nc3c2COC(c2cccc4ccccc24)C3)C[C@@H]1CC#N (stereo partly shown) [Compound 3]	< 1	> 1	–	–
C=CC(=O)N1CCN(c2nc(OC[C@@H]3CCCN3C)nc3c2COC(c2cccc4cccc(C)c24)C3)C[C@@H]1CC#N (stereo partly shown) [Compound 4-1]	–	–	> 1	IC50 [1, 9]: < 1 µM
C=CC(=O)N1CCN(c2nc(OC[C@@H]3CCCN3C)nc3c2COC(c2cccc4cccc(C)c24)C3)C[C@@H]1CC#N (stereo partly shown) [Compound 4-2]	–	–	–	IC50 [1, 9]: < 1 µM; IC50 [3, 10]: > 1 µM; IC50 [4]: > 1 µM
C=CC(=O)N1CCN(c2nc(OC[C@@H]3CCCN3C)nc3c2COC(c2cccc4cccc(C)c24)C3)C[C@@H]1CC#N (stereo partly shown) [Compound 4]	< 1	> 1	–	–
C=CC(=O)N1CCN(c2nc(OCCN(C)C)nc3c2COC(c2cccc4cccc(C)c24)C3)C[C@@H]1CC#N (stereo partly shown) [Compound 5]	< 1	> 1	–	–
C=CC(=O)N1CCN(c2nc(OCCN(CC)CC)nc3c2COC(c2cccc4cccc(C)c24)C3)C[C@@H]1CC#N (stereo partly shown) [Compound 6-2]	< 1	> 1	–	–
C=CC(=O)N1CCN(c2nc(OCCCN(C)C)nc3c2COC(c2cccc4cccc(C)c24)C3)C[C@@H]1CC#N (stereo partly shown) [Compound 7]	< 1	> 1	–	–
C=CC(=O)N1CCN(c2nc(OC[C@@H]3CCCN3C)nc3c2COC(c2cccc4cccc(C)c24)C3)CC1 (stereo partly shown) [Compound 8]	< 1	> 1	–	–
C=CC(=O)N1CCN(c2nc(N(C)CCN(C)C)nc3c2COC(c2cccc4cccc(C)c24)C3)C[C@@H]1CC#N (stereo partly shown) [Compound 9]	< 1	> 1	–	–
C/C=C/C(=O)N1CCN(c2nc(OC[C@@H]3CCCN3C)nc3c2COC(c2cccc4cccc(C)c24)C3)C[C@@H]1CC#N (stereo partly shown) [Compound 10]	< 1	> 1	> 1	–
C=CC(=O)N1CCN(c2nc(OC[C@@H]3CCCN3C)nc3c2COC(c2cccc4cccc(C)c24)C3)[C@@H](C)C1 (stereo partly shown) [Compound 11-2]	< 1	> 1	> 1	–

Structure (SMILES)	IC50 [1, 7] [µM]	IC50 [3, 8] [µM]	IC50 ([4]; Homo sapiens, A-375) [µM]	other results
C=C(F)C(=O)N1CCN(c2nc(OC[C@@H]3CCCN3C)nc3c2COC(c2cccc4cccc(Cl)c24)C3)C[C@@H]1CC#N (stereo partly shown) [Compound 12-2]	< 1	> 1	> 1	–
C=C(F)C(=O)N1CCN(c2nc(OC[C@@H]3CCCN3C)nc3c2COC(c2cccc4cccc(C)c24)C3)C[C@@H]1CC#N (stereo partly shown) [Compound 13]	< 1	> 1	> 1	–
C=CC(=O)N1CCN(c2nc(OC(C)CN(C)C)nc3c2COC(c2cccc4cccc(C)c24)C3)C[C@@H]1CC#N (stereo partly shown) [Compound 14]	< 1	> 1	> 1	–
C=CC(=O)N1CCN(c2nc(OC[C@@H]3CC(F)(F)CN3C)nc3c2COC(c2cccc4cccc(C)c24)C3)C[C@@H]1CC#N (stereo partly shown) [Compound 15]	< 1	> 1	> 1	–
C=CC(=O)N1CCN(c2nc(OC[C@H]3CCCN3C)nc3c2COC(c2cccc4cccc(C)c24)C3)C[C@@H]1CC#N (stereo partly shown) [Compound 16]	< 1	> 1	> 1	–
Cc1cccc2cccc(C3Cc4nc(OC[C@@H]5CCCN5C)nc(N5CCN(C(=O)/C=C/CN(C)C)[C@@H](CC#N)C5)c4CO3)c12 (stereo partly shown) [Compound 17]	< 1	> 1	> 1	–
C=C(F)C(=O)N1CCN(c2nc(OC[C@H]3CCCN3C)nc3c2COC(c2ccccc2C(F)(F)F)C3)C[C@@H]1CC#N (stereo partly shown) [Compound 19-2]	< 1	> 1	> 1	–
CC#CC(=O)N1CCN(c2nc(OC[C@@H]3CCCN3C)nc3c2COC(c2cccc4cccc(C)c24)C3)C[C@@H]1CC#N (stereo partly shown) [Compound 24]	< 1	> 1	> 1	–
C=CC(=O)N1CCN(c2nc(OC[C@@H]3CCCN3C)nc3c2COC(c2cccc4cccc(Cl)c24)C3)C[C@@H]1CC#N (stereo partly shown) [Compound 25]	< 1	> 1	> 1	–
C=C(F)C(=O)N1CCN(c2nc(OC[C@@H]3CCCN3C)nc3c2COC(c2ccccc2Cl)C3)C[C@@H]1CC#N (stereo partly shown) [Compound 30]	< 1	> 1	> 1	–
Cc1cccc2cccc(C3Cc4nc(OC[C@@H]5CCCN5C)nc(N5CCN(C(=O)/C=C/CN6CCOCC6)[C@@H](CC#N)C5)c4CO3)c12 (stereo partly shown) [Compound 31]	< 1	> 1	> 1	–
C=C(F)C(=O)N1CCN(c2nc(OC[C@H]3CCCN3C)nc3c2COC(c2cccc4cccc(Cl)c24)C3)C[C@@H]1CC#N (stereo partly shown) [Compound 32-2]	< 1	> 1	> 1	–
CN(C)C/C=C/C(=O)N1CCN(c2nc(OC[C@@H]3CCCN3C)nc3c2CO[C@H](c2cccc4cccc(Cl)c24)C3)C[C@@H]1CC#N [Compound 36]	–	–	–	IC50 [1, 11]: < 1 µM
C=CC(=O)N1CCN(c2nc(OC[C@@H]3CCCN3C)nc3c2COC(c2cncc4ccccc24)C3)C[C@@H]1CC#N (stereo partly shown) [Compound 40]	–	–	–	IC50 ([2]; class symbol): < 1000 nM
CN1CCC[C@H]1COc1nc2c(c(N3CCN(C#N)[C@@H](CC#N)C3)n1)CO[C@H](c1cccc3cccc(Cl)c13)C2 [Compound 41]	–	–	–	IC50 [1, 11]: < 1 µM
CC(=O)/C=C/C(=O)N1CCN(c2nc(OC[C@@H]3CCCN3C)nc3c2CO[C@H](c2cccc4cccc(Cl)c24)C3)C[C@@H]1CC#N [Compound 44]	–	–	–	IC50 [1, 11]: < 1 µM
C=CC(=O)N1CCN(c2nc(NCCN(C)C)nc3c2CO[C@H](c2cccc4cccc(Cl)c24)C3)C[C@@H]1CC#N [Compound 45]	–	–	–	IC50 [1, 11]: < 1 µM
C=CC(=O)N1CCN(c2nc(SCCN(C)C)nc3c2CO[C@H](c2cccc4cccc(Cl)c24)C3)C[C@@H]1CC#N [Compound 46]	–	–	–	IC50 [1, 11]: < 1 µM
